Test [1] addresses T1, c-kit kinase enzyme (Homo sapiens, UniProt P10721).
T1 construct: (catalytic domain, N-terminal GST tagged, unphosphorylated)
The test can be described thus: C-kit Homogeneous Time Resolved Fluorescent (HTRF) kinase assay. Type of test: biochemical. The following applies: c-kit catalytic domain, biotinylated Her-2 peptide substrate, ATP.

In test [2] the test system is SCF-stimulated UT-7 cells. The following applies: Homo sapiens, UT7, 72 h, read-out: UT7 Proliferation cell assay data.
From the text: SCF and GM-CSF Stimulated UT7 Proliferation/Survival Assay:
The purpose of this assay is to test the general anti-proliferative/cytotoxic effect of small molecule compounds on SCF or GM-CSF-stimulated UT-7 cells. Preventing SCF stimulated proliferation/survival is consistent with an on-mechanism effect whereas inhibition of GM-CSF driven proliferation/survival is indicative of off-target effects. UT-7 is a factor dependent human megakaryoblastic leukemia cell line that can be grown in either IL-3, GM-CSF, EPO or SCF (these cells have been confirmed to carry wild type c-kit receptor). Cells are maintained in growth media (IMDM, 10% HI-FBS, 1×PGS, 1 ng/mL GM-CSF). […] Small molecule compounds are first diluted in 100% DMSO, then diluted 1:4 in RT assay media. […] The treated cells are incubated in a 37° C. humidified incubator with 5% CO2 for 3 days. The amount of ATP is then measured as a surrogate marker for cell viability. […] The amount of SCF or GM-CSF stimulated viable cells in the presence of compound compared with in the presence of vehicle alone (HI control) is calculated using the formula: % control (POC)=(cpd−average LO)/(average HI−average LO)*100. Data (consisting of POC and inhibitor concentration in μM) is fitted to a 4-parameter equation (y=A+((B−A)/(1+((x/C)^D))), where A is the minimum y (POC) value, B is the maximum y (POC), C is the x (cpd concentration) at the point of inflection and D is the slope factor) using a Levenburg-Marquardt non-linear regression algorithm.
Where [3] appears, read: read-out: HTRF Fret enzyme assay data.

We go through 14 compounds from patent US8063055B2, “Substituted pyridone compounds and methods of use” (Amgen Inc., priority 2007, dated 2011).

Like-named read-outs stand apart in the source and are kept apart here.

T1 sequence (P10721 589-937 limits assumed): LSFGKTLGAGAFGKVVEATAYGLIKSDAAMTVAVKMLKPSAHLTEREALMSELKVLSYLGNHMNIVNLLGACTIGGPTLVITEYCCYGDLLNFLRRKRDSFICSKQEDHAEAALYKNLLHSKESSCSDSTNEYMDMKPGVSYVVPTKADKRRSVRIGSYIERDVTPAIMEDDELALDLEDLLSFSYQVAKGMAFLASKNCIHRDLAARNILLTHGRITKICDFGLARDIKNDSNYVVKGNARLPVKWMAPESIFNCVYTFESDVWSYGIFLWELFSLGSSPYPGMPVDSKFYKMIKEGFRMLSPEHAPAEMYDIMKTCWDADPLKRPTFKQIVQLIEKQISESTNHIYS

As to `CCOC(=O)c1ccc(-n2ccc(C)c(-c3ccc4nc(N)ncc4c3)c2=O)cc1` [Example 29, ethyl 4-(3-(2-aminoquinazolin-6-yl)-4-methyl-2-oxopyridin-1(2H)-yl)benzoate], the figures for the IC50 in test [1] (setting [3]) and in test [2] were 17 nM and 66 nM, respectively.
In the case of `Cc1ccn(-c2ccc(C(F)(F)F)cc2)c(=O)c1-c1ccc2nc(N)ncc2c1` [Example 30, 3-(2-aminoquinazolin-6-yl)-4-methyl-1-(4-(trifluoromethyl)phenyl)pyridin-2(1H)-one], the IC50 was 8 nM in test [1] (HTRF Fret enzyme assay data) and 18 nM in test [2].
On to `Cc1ccn(-c2ccc(Cl)cc2)c(=O)c1-c1ccc2nc(N)ncc2c1` [Example 32, 3-(2-aminoquinazolin-6-yl)-1-(4-chlorophenyl)-4-methylpyridin-2(1H)-one], for which the values for the IC50 in test [1] (setting [3]) and in test [2] were 20 nM and 14 nM, respectively.
As for `Cc1ccn(-c2ccc(F)cc2)c(=O)c1-c1ccc2nc(N)ncc2c1` [Example 33, 3-(2-aminoquinazolin-6-yl)-1-(4-fluorophenyl)-4-methylpyridin-2(1H)-one], the values for the IC50 in test [1] (HTRF Fret enzyme assay data) and in test [2] were 63 nM and 107 nM, respectively.
As to `Cc1ccn(-c2ccc(N3CCOCC3)cc2)c(=O)c1-c1ccc2nc(N)ncc2c1` [Example 34, 3-(2-aminoquinazolin-6-yl)-4-methyl-1-(4-morpholinophenyl)pyridin-2(1H)-one], the IC50 in test [1] (setting [3]) was 13 nM; in test [2], 72 nM.
As to `Cc1ccn(-c2ccc(CN3CCOCC3)cc2)c(=O)c1-c1ccc2nc(N)ncc2c1` [Example 35, 3-(2-aminoquinazolin-6-yl)-4-methyl-1-(4-(morpholinomethyl)phenyl)pyridin-2(1H)-one], the IC50 in test [1] (HTRF Fret enzyme assay data) came out at 31 nM; in test [2], 200 nM.
For the compound `Cc1ccn(-c2ccc(-n3cccn3)cc2)c(=O)c1-c1ccc2nc(N)ncc2c1` [Example 38, 1-(4-(1H-pyrazol-1-yl)phenyl)-3-(2-aminoquinazolin-6-yl)-4-methylpyridin-2(1H)-one], the IC50 came to 10 nM in test [1] (setting [3]) and 18 nM in test [2].
As to `Cc1ccn(-c2ccc(F)c(F)c2)c(=O)c1-c1ccc2nc(N)ncc2c1` [Example 39, 3-(2-aminoquinazolin-6-yl)-1-(3,4-difluorophenyl)-4-methylpyridin-2(1H)-one], the IC50 is 48 nM in test [1] (HTRF Fret enzyme assay data) and 63 nM in test [2].
In the case of `Cc1ccn(-c2ccc(Cl)c(Cl)c2)c(=O)c1-c1ccc2nc(N)ncc2c1` [Example 40, 3-(2-aminoquinazolin-6-yl)-1-(3,4-dichlorophenyl)-4-methylpyridin-2(1H)-one], the results for the IC50 in test [1] (HTRF Fret enzyme assay data) and in test [2] were 20 nM and 18 nM, respectively.
The like results for `Cc1ccc(-n2ccc(C)c(-c3ccc4nc(N)ncc4c3)c2=O)cc1Cl` [Example 41, 3-(2-aminoquinazolin-6-yl)-1-(3-chloro-4-methylphenyl)-4-methylpyridin-2(1H)-one] were, in that order, 8.21 nM and 12 nM.
Consider `Cc1cc(-n2ccc(C)c(-c3ccc4nc(N)ncc4c3)c2=O)ccc1F` [Example 42, 3-(2-aminoquinazolin-6-yl)-1-(4-fluoro-3-methylphenyl)-4-methylpyridin-2(1H)-one], for which the IC50 in test [1] (setting [3]) worked out at 14 nM; in test [2] it was 18 nM.
With `Cc1ccn(-c2ccc(F)c(C(F)(F)F)c2)c(=O)c1-c1ccc2nc(N)ncc2c1` [Example 43, 3-(2-aminoquinazolin-6-yl)-1-(4-fluoro-3-(trifluoromethyl)phenyl)-4-methylpyridin-2(1H)-one], the IC50 in test [1] (HTRF Fret enzyme assay data) was found to be 21.2 nM; in test [2], 41 nM.
With `Cc1ccn(-c2ccc(F)c(Cl)c2)c(=O)c1-c1ccc2nc(N)ncc2c1` [Example 45, 3-(2-aminoquinazolin-6-yl)-1-(3-chloro-4-fluorophenyl)-4-methylpyridin-2(1H)-one], the IC50 in test [1] (HTRF Fret enzyme assay data) stood at 98.9 nM; in test [2] it was 40 nM.
As to `Cc1ccn(-c2cc(Cl)cc(Cl)c2)c(=O)c1-c1ccc2nc(N)ncc2c1` [Example 46, 3-(2-aminoquinazolin-6-yl)-1-(3,5-dichlorophenyl)-4-methylpyridin-2(1H)-one], the IC50 in test [1] (HTRF Fret enzyme assay data) is 44 nM; in test [2], 35 nM.
